Reference: paper PMC12631574, “Structure–activity relationships of hydrophobic small molecule irreversible inhibitors of tissue transglutaminase” (RSC Medicinal Chemistry, 2025)
Read-outs that look alike come from different tables or passages of the source.

Assays:
[1] = test system: human hepatocytes; set-up: method as in PMID 36846370; conditions: cited from earlier work
[2] = biological target: T1, tissue transglutaminase (TG2), C-terminal His-tag TG2 (Homo sapiens, UniProt P21980); experiment: continuous AL5 hydrolysis assay of irreversible TG2 inhibition (kobs vs [I]/α); type: biochemical
T1 construct: host or cells: Novagen Rosetta 2 (DE3) E. coli
T1 sequence (P21980 1-687): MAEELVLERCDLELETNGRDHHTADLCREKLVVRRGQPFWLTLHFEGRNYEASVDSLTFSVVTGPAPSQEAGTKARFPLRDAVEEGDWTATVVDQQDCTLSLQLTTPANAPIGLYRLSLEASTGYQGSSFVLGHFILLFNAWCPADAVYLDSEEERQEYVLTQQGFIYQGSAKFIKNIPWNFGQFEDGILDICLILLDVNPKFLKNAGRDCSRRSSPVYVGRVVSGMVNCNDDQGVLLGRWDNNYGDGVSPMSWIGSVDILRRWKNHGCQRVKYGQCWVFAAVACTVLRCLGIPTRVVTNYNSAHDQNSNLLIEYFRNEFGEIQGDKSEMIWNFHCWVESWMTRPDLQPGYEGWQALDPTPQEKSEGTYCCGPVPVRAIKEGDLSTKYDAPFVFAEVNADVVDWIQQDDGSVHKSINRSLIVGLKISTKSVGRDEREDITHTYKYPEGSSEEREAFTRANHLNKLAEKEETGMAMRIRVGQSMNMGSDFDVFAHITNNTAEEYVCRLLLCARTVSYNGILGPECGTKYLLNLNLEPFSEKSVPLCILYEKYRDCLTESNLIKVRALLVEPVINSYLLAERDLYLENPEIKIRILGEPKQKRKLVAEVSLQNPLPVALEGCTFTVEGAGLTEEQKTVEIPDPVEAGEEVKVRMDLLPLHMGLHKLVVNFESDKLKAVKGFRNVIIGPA

[3] = test system: MDCK-MDR1 cells; set-up: method as in PMID 39708924; conditions: cited from earlier work
[4] = parallel artificial membrane permeability assay (PAMPA), at Pharmaron; type: in vitro ADME
[5] = incubation in phosphate buffer with no hepatocytes present; type: physicochemical; conditions: phosphate buffer 0.1 M, pH = 8.0, no hepatocytes present
[6] = stability in human hepatocytes, at Pharmaron; type: in vitro ADME; conditions: 20-donor, pooled; for hepatocyte CLint: read-out: In vitro CLint; for half-life: human, hepatocytes, read-out: In vitro t1/2
[7] = solubility in inhibition assay conditions and stock solutions; type: physicochemical; conditions: inhibition assay mixture, DMSO not above 6%
[8] = irreversible inhibition, AL5 100 μM, pH 6.9, 25 °C, triplicate
[9] = supplement, kinetics data and fitting
[10] = Pe in cm s^−1, lower value is more permeable, read-out: −log[Pe (cm s^−1)] (converted)
[11] = inhibition efficiency, combined from kinact and KI

For `C=CC(=O)NCC(=O)N1CCN(C(=O)C23CC4CC(CC(C4)C2)C3)CC1` [EB-2-16, reference compound], the “In vitro t1/2” value [1] is listed as >120 (ref. [27]) min, the kinact [2] is listed as 0.0233 s⁻¹ and the KI (inactivation) [2, 8] is listed as 2430 ± 190 nM. The KI (inactivation) [2, 9] was 2430 ± 190 nM, the kinact/KI [2, 9] was 576 ± 50 × 103 M-1min-1 and the “susceptibility to P-glycoprotein-mediated efflux” value ([3]; MDCK-MDR1 cells) was “not susceptible to P-glycoprotein-mediated efflux”. The “diffusion across the membrane of MDCK-MDR1 cells” value ([3]; bidirectional) was “excellent bidirectional diffusion” and the Papp [4, 10] was 1.55 ×10⁻⁶ cm/s.

For `C=CC(=O)NCC(=O)N1CCN(C(=O)C23CC4CC(CC(Br)(C4)C2)C3)CC1` [Compound 25c, N-2-[4-[(3-Bromoadamantanecarbonyl)-1-piperazinyl]-2-oxoethyl]propenamide], the “stability in phosphate buffer” value [5] was “degrade after 24 hours”, the kinact [2] was 0.0119 s⁻¹ and the KI (inactivation) [2, 8] was 650 ± 80 nM. The KI (inactivation) [2, 9] was 648 ± 85 nM, the kinact/KI [2, 9] was 1104 ± 162 × 103 M-1min-1 and the Papp [4, 10] was 2.19 ×10⁻⁶ cm/s.

`C=CC(=O)NCC(=O)N1CCN(C(=O)C23CC4CC(C2)CC(c2ccccc2)(C4)C3)CC1` [Compound 25d, N-2-[4-[(3-Phenyladamantanecarbonyl)-1-piperazinyl]-2-oxoethyl]propenamide] showed a kinact [2] of 0.0112 s⁻¹, a KI (inactivation) [2, 8] of 690 ± 70 nM and a KI (inactivation) [2, 9] of 691 ± 67 nM. For the same compound, the kinact/KI [2, 9] was 972 ± 103 × 103 M-1min-1, the hepatocyte CLint [6] was 29.3 µL/min/1e6 cells and the half-life [6] was roughly 47 min. For the same compound, the Papp [4, 10] was 13.2 ×10⁻⁶ cm/s.

With `C=CC(=O)NCC(=O)N1CCN(C(=O)c2ccc(-c3ccc(C)cc3)cc2)CC1` [Compound 21i, N-2-[4-[((4′-Methyl-4-biphenyl)carbonyl)-1-piperazinyl]-2-oxoethyl]propenamide] the kinact/KI [2, 11] was “INS”, the KI [2, 8] was “INS” and the kinact [2, 8] was “INS”. For the same compound, the “solubility in assay conditions” value [7] was “too insoluble in assay conditions”.

For `C=CC(=O)NCC(=O)N1CCN(C(=O)c2ccc(Oc3ccccc3)cc2)CC1` [Compound 22h, N-2-[4-[((4-Phenoxyphenyl)carbonyl)-1-piperazinyl]-2-oxoethyl]propenamide], the kinact/KI [2, 11] was “INS”, the KI [2, 8] was “INS” and the kinact [2, 8] was “INS”. The “solubility in assay conditions” value [7] was “too insoluble in assay conditions”.

Compound `C=CC(=O)NCC(=O)N1CCN(C(=O)C23CC4CC(CC(Cl)(C4)C2)C3)CC1` [Compound 25b, N-2-[4-[(3-Chloroadamantanecarbonyl)-1-piperazinyl]-2-oxoethyl]propenamide] has a kinact [2] of 0.0282 s⁻¹, a KI (inactivation) [2, 8] of 1790 ± 170 nM and a KI (inactivation) [2, 9] of 1790 ± 170 nM. For the same compound, the kinact/KI [2, 9] was 941 ± 101 × 103 M-1min-1, the hepatocyte CLint [6] was 6.91 µL/min/1e6 cells and the half-life [6] was 200 min. The “−log[Pe (cm s^−1)]” value ([4]; Pe in cm s^−1, lower value is more permeable) was 5.85 and the Papp ([4]; read-out: Pe) was 1.41 ×10⁻⁶ cm/s.

In the case of `C=CC(=O)NCC(=O)N1CCN(C(=O)C23CC4CC(CC(I)(C4)C2)C3)CC1` [Compound 29, N-2-[4-[(3-Iodoadamantanecarbonyl)-1-piperazinyl]-2-oxoethyl]propenamide], the “stability in phosphate buffer” value [5] is reported as “degrade after 24 hours”, the kinact [2] is reported as 0.0278 s⁻¹ and the KI (inactivation) [2, 8] is reported as 1400 ± 120 nM. For the same compound, the KI (inactivation) [2, 9] was 1400 ± 120 nM, the kinact/KI [2, 9] was 1195 ± 112 × 103 M-1min-1 and the hepatocyte CLint [6] was 69.2 µL/min/1e6 cells. It also gave a half-life [6] of 20 min and a Papp [4, 10] of 5.25 ×10⁻⁶ cm/s.
